Measurements from ChEMBL document CHEMBL1138610, “Peganine hydrochloride dihydrate an orally active antileishmanial agent” (Bioorg Med Chem Lett, 2009).
In brackets after ≈: the same amount, converted by molar mass. Activity calls are given as the source filed them. The calls are words filed in the database; no cut-off is given here.

Legend:
[1] = test system: Leishmania donovani; assay: Antileishmanial activity against Leishmania donovani promastigotes assessed as inhibition of parasite multiplication at 10 ug/ml; type: functional; set-up: scale not given: the % may be the effect or the level left
[2] = test system: Leishmania donovani; assay: Antileishmanial activity against Leishmania donovani amastigote infected in mouse J774A1 cells expressing green fluorescence protein by flow cytometry; type: functional, organism-based; details: J774.A1
[3] = test system: Leishmania donovani; assay: Antileishmanial activity against Leishmania donovani promastigotes expressing green fluorescence protein by flow cytometry; type: functional
[4] = test system: Leishmania donovani; assay: Antileishmanial activity against Leishmania donovani promastigotes expressing green fluorescence protein assessed as decrease in mean fluorescence intensity; type: functional, organism-based
[5] = test system: Leishmania donovani; assay: Antileishmanial activity against Leishmania donovani amastigote infected in mouse J774A1 cells expressing green fluorescence protein assessed as decrease in mean fluorescence intensity up to 25 ug/ml; type: functional, organism-based; details: J774.A1
[6] = test system: Leishmania donovani; assay: Antileishmanial activity against Leishmania donovani amastigote infected in mouse J774A1 cells expressing green fluorescence protein assessed as decrease in mean fluorescence intensity at 30 to 100 ug/ml; type: functional, organism-based; details: J774.A1
[7] = test system: J774.A1; assay: Cytotoxicity against mouse J774A1 cells at 200 uM after 48 hrs by MTT assay; type: cell-based; details: j774.a1, 48 h
[8] = test system: Leishmania donovani; assay: Antileishmanial activity against Leishmania donovani infected in hamster assessed inhibition of parasite growth at 200 mg/kg, po after 5 days; type: functional; set-up: scale not given: the % may be the effect or the level left
[9] = test system: Leishmania donovani; assay: Antileishmanial activity against Leishmania donovani infected in hamster assessed inhibition of parasite growth at 100 mg/kg, po after 5 days; type: functional; set-up: scale not given: the % may be the effect or the level left
[10] = test system: Leishmania donovani; assay: Antileishmanial activity against Leishmania donovani infected in hamster assessed inhibition of parasite growth at 50 mg/kg, po after 5 days; type: functional, organism-based; set-up: dose 50 mg/kg
[11] = test system: Leishmania donovani; assay: Antileishmanial activity against Leishmania donovani infected in hamster assessed inhibition of parasite growth at 40 mg/kg, po after 5 days; type: functional; set-up: scale not given: the % may be the effect or the level left

| IC50 [2] [µg/mL] | IC50 [4] [µg/mL] | IC90 [4] [µg/mL] | IC90 [2] [µg/mL] | SMILES | Activity [1] [%] | Activity [3] [%] | Activity [4] | Activity [5] | Activity [6] | Activity [7] | Activity [8] [%] | Activity [9] [%] | Activity [10] | Activity [11] [%] |
| --- | --- | --- | --- | --- | --- | --- | --- | --- | --- | --- | --- | --- | --- | --- |
| 5 (≈ 12.3 µM) | – | – | – | CCCCCCCCCCCCCCCCOP(=O)([O-])OCC[N+](C)(C)C [MILTEFOSINE] | 50 | – | – | – | – | – | – | – | – | – |
| 41 | 38 | 75 | 85 | Cl.OC1CCN2Cc3ccccc3N=C12 (stereo not given) [PEGANINE HYDROCHLORIDE] | – | 50 | Dose-dependent effect | Active | Active | Non-toxic | 87.5 | 79.6 | inactive | 95.5 |
